For one test, the system named is MV4‐11 cells. In words: Cell viability endpoint assay (Celltiter Blue, 72 h). In kind it is cell-based. Conditions: Homo sapiens, MV4-11, mean±SD from two independent experiments. The protocol:
Cell lines. MV4‐11 (ACC 102), Jurkat (ACC 282) and THP‐1 (ACC 16) cells were obtained from DSMZ and maintained at 37 °C and 5 % CO2 at densities between 0.2–1×10^6 cells per mL in RMPI‐1640 medium supplemented with 10 % FBS, L‐glutamine (2 mM) and penicillin/streptomycin.
Cell viability endpoint assay. For the determination of cytotoxicity of proteasome inhibitors 50.000 cells per well were plated in 90 μl RPMI‐1640 medium supplemented with 0.1 % FBS and incubated overnight at 37 °C and 5 % CO2. Inhibitors were serially diluted in RPMI‐1640 medium as 10‐fold stocks and added to cells giving the final concentration (1 nM to 10 μM, Figure S2–S4) and incubated for 72 h at 37 °C and 5 % CO2. Cell viability was determined using the Celltiter Blue assay (Promega) by adding 20 μl of reagent, incubation for 120 minutes at 37 °C and 5 % CO2 and fluorescent read‐out using a Tecan M1000 microplate reader. Dose‐response curves were fitted to the equation “Y=Bottom+(Top‐Bottom)/(1+10^(X−L°^gIC50))” using GraphPad Prism 7.02. IC50 values are determined from technical triplicates as mean value of two independent experiments. Standard deviations (Table S1) as well as dose response curves (SI chapter 2b) are given in the supplementary information.

Test [1] has as its target T1, β5i subunit of isolated human 20S proteasome (Homo sapiens, UniProt P28062).
T1 construct: purchased Enzo Life Sciences
As to the kind of experiment: Proteasome inhibition assay (20 S Proteasome Assay Kit, Suc‐LLVY‐AMC). It is filed as biochemical. Conditions: for inhibition at 1 µM: c = 1 µM, n=1, read-out: Inhibition iCP β5; for inhibition at 0.1 µM: c=100 nM, read-out: Rel. Inhibition β5i. The protocol:
(§1) Proteasome inhibition assay. […] The 20 S Proteasome Assay Kit for Drug Discovery was used according to the supplier's protocol using Suc‐LLVY‐AMC (β5), Bz‐VGR‐AMC (β2) or Z‐LLE‐AMC (β1) as substrates (Enzo Life Sciences). Single point measurements of residual activity of proteasome activity were performed at a final concentration of 100 nM (n=3, β5c, β5i) or 1 μM (n=1, β1c, β2c, β5c, β5i, SI chapter 2a, Table S1). […] Inhibitors were prepared in 2‐fold concentration (cfinal=100 nM) and added to proteasomes (mfinal=200 ng/well). After 30 min incubation, substrate was added (cfinal=100 μM), incubated for 60 minutes and fluorescence was read using a Tecan M1000 microplate reader. […] IC50 values were determined from technical duplicates as mean value of three independent experiments.

The target of test [2] is T2, β5c subunit of isolated human 20S proteasome (Homo sapiens, UniProt P28074).
T2 construct: purchased Enzo Life Sciences
The test is described as above. It is filed as biochemical. Particulars: for inhibition at 1 µM: c = 1 µM, n=1, read-out: Inhibition cCP β5; for inhibition at 0.1 µM: c=100 nM, read-out: Rel. Inhibition β5c. As to the method: as §1

Test [3] deals with T3, β2c subunit of isolated human 20S proteasome (Homo sapiens, UniProt Q99436).
T3 construct: purchased Enzo Life Sciences
As to the kind of experiment: Proteasome inhibition assay (20 S Proteasome Assay Kit, Bz‐VGR‐AMC). Conditions: c = 1 µM, n=1; read-out: Inhibition cCP β2. In kind it is biochemical. The protocol:
Proteasome inhibition assay. Bortezomib (Selleckchem) and carfilzomib (MedChemExpress) were purchased and used without further purification. The 20 S Proteasome Assay Kit for Drug Discovery was used according to the supplier's protocol using Suc‐LLVY‐AMC (β5), Bz‐VGR‐AMC (β2) or Z‐LLE‐AMC (β1) as substrates (Enzo Life Sciences). Single point measurements of residual activity of proteasome activity were performed at a final concentration of 100 nM (n=3, β5c, β5i) or 1 μM (n=1, β1c, β2c, β5c, β5i, SI chapter 2a, Table S1). […] Inhibitors were prepared in 2‐fold concentration (cfinal=100 nM) and added to proteasomes (mfinal=200 ng/well). After 30 min incubation, substrate was added (cfinal=100 μM), incubated for 60 minutes and fluorescence was read using a Tecan M1000 microplate reader. Dose‐response curves were fitted to the equation Y=100/(1+10^((L°^gIC50−X)*HillSl°^pe)) using GraphPad Prism 7.02. IC50 values were determined from technical duplicates as mean value of three independent experiments.

Test [4] addresses T4, β1c subunit of isolated human 20S proteasome (Homo sapiens, UniProt P28072).
T4 construct: purchased Enzo Life Sciences
As to the kind of experiment: Proteasome inhibition assay (20 S Proteasome Assay Kit, Z‐LLE‐AMC). In kind it is biochemical. Particulars: c = 1 µM, n=1; read-out: Inhibition cCP β1. As to the method:
as §1

As for `CC(C)C[C@H](NC(=O)OCc1ccccc1)C(=O)N[C@@H](CC(=O)OC(C)(C)C)C(=O)N[C@@H](CC(C)C)C(=O)C(=O)Nc1ccccc1Oc1ccccc1` [Compound 18, tert ‐Butyl‐(S)‐3‐((S)‐2‐(((benzyloxy)carbonyl)amino)‐4‐methylpentanamido)‐4‐(((S)‐5‐methyl‐1,2‐dioxo‐1‐((2‐phenoxyphenyl)amino)hexan‐3‐yl)amino)‐4‐oxobutanoate], 76 ± 14 nM corresponded to half-maximal inhibition with MV4‐11 cells (IC50). For the same compound, the inhibition (commonly the drop in the measured response relative to a control, in per cent) at 1 µM was 7% in test [1], 59% in test [2], 2% in test [3] and -12% in test [4]. In addition, the inhibition at 0.1 µM in test [1] is 18%; in test [2] it was 28%.
Take `Cc1c(NC(=O)C(=O)[C@H](CC(C)C)NC(=O)[C@H](CC(C)C)NC(=O)[C@H](CC(C)C)NC(=O)OCc2ccccc2)cccc1Oc1ccccc1` [Compound 14, Benzyl((S)‐4‐methyl‐1‐(((S)‐4‐methyl‐1‐(((S)‐5‐methyl‐1‐((2‐methyl‐3‐phenoxyphenyl)‐amino)‐1,2‐dioxohexan‐3‐yl)amino)‐1‐oxopentan‐2‐yl)amino)‐1‐oxopentan‐2‐yl)carbamate]: half-maximal inhibition in the test with MV4‐11 cells (IC50) was put at 27 ± 8 nM. Also, the inhibition at 1 µM was 30% in test [1], 78% in test [2], 5% in test [3] and -10% in test [4]. Also, the values for the inhibition at 0.1 µM in test [1] and in test [2] were 29% and 41%, respectively.

(Values after paper PMC6916368, “Cell‐Based Optimization of Covalent Reversible Ketoamide Inhibitors Bridging the Unprimed to the Primed Site of the Proteasome β5 Subunit” (Chemmedchem, 2019).)
